{
  "source": "patent US7973066B2",
  "about": "“Pyrrolo[1,2-A]imidazoledione effective in the treatment of peripheral neurotoxicity induced by chemotherapeutic agents” (Neurotune AG, priority 2006, dated 2011)",
  "key": {"CIPN [1]": {"test_system": "CIPN", "conditions": "phase III, 10 weeks of therapy; cited from earlier work"}, "[2]": {"test_system": "Vincristine-induced peripheral neuropathy", "test": "Vincristine-induced peripheral neuropathy, paw pressure test", "type": "in vivo, rat", "conditions": "for anti-hyperalgesic effect on mechanical hyperalgesia after repeated treatment: 30 mg/kg i.p. daily during last five days of vincristine, 1 hr and 12 hr after last administration; for reversal of vincristine mechanical hyper-sensitivity (paw pressure threshold): 100 mg/kg p.o., 30 and 60 min after treatment, 4 days after last vincristine injection; for activity on vehicle treated animals (paw pressure): vehicle treated rats, p.o.", "description": "Vincristine was administered i.v. (150 μg/kg), every two days until a cumulative dose of 750 μg/kg was reached. Paw mechanical iper-sensitivity was evaluated 4 days after the last vincristine injection (Marchand F. et al. 2003, Brain Res. 980:117-120).\n(§1) When a chemotherapeutic injection was to be given on a same day as behavioural testing, rats were injected after the measurement was taken.\n(§2) Paw mechanical iper-sensitivity was determined using a Randall & Selitto apparatus exerting a force that increases at constant rate (32 g/s) in agreement with Leighton G. E. et al. (1988, Br. J. Pharmacol 93:553-560). The stimulus at which rats withdraw the paw was evaluated before and at different times after drugs treatment. Results represent the mean of mechanical thresholds expressed as grams. To avoid any possible damage to the animal paw the maximum applied force was fixed at 240 g."}, "[3]": {"test_system": "Taxol-induced peripheral neuropathy", "test": "Taxol-induced peripheral neuropathy, paw pressure test", "type": "in vivo, rat", "conditions": "for anti-hyperalgesic activity, i.v.: 3 mg/kg i.v.; for anti-hyperalgesic activity, i.v. / anti-hyperalgesic activity, i.p.: 30-90 min from administration; for anti-hyperalgesic activity, i.p.: 30 mg/kg i.p.; for rat paw pressure threshold, anti-hyperalgesic effect: 100 mg/kg given orally, 30 and 60 min after treatment", "description": "Taxol neuropathy was induced by i.p. administration (0.5 mg/kg) once a day, on days 1, 3, 5, 8. Cumulative taxol dose was 2 mg/kg. The pharmacological test was performed 14-18 days after the last taxol injection (Polomano R. C. et al. 2001, Pain 94:293-304).\nas §1, §2"}, "[4]": {"test_system": "Oxaliplatin-induced peripheral neuropathy", "test": "Oxaliplatin-induced peripheral neuropathy, paw pressure test", "type": "in vivo, rat", "conditions": "for prevention of oxaliplatin-induced decrease of mechanical threshold: 100 mg/kg p.o. once daily starting three days before oxaliplatin, tested every week 30 min after administration; for effects on vehicle treated animals (paw pressure): vehicle treated rats", "description": "The cumulative dose of oxliplatin was 36 mg/kg (Cavaletti G. et al. 2001, Eur. J. Cancer 37:2457-2463).\nas §1, §2\nMaximum hyperalgesia was obtained after a two weeks period of treatment. […] Compound administration was performed in the same days of chemotherapeutic injection."}, "CIPN [5]": {"test_system": "CIPN", "conditions": "cancer patients with CIPN; cited from earlier work"}, "[6]": {"test_system": "HT29 human colon carcinoma cell line", "test": "In vitro cytotoxicity and combination studies, ATPlite", "conditions": "for IC50: read-out: cytotoxic effect IC50", "description": "In order to verify if the use of NiK-13317 for the treatment of CIPN would not affect the efficacy of anticancer treatments, the effect of NiK-13317 on cytotoxicity of known anticancer drugs was examined in vitro using HT29 human colon carcinoma cell line.\nAfter 72 hours, cells were lysed and cell metabolic activity was quantified with ATPlite kit (Perkin Elmer Life Science) following manufacturer's recommendations. The ATP present in all metabolically active cells catalyses a reaction of transformation of D-luciferin by Luciferase, producing a luminescent signal measured using VICTOR^3™ Multi Label Reader (Perkin Elmer). Results were expressed as percentage of luminescence produced (i.e. ATP produced) compared to the control. Complete concentration-response curves with anticancer drugs were constructed in order to identify the concentrations producing a submaximal and a maximal cytotoxic effect, to be utilized for combination experiments."}, "[7]": {"test_system": "cisplatin-induced pain syndrome", "conditions": "51 patients, maximum dose 100 mg/day; cited from earlier work"}},
  "note": "Like-named read-outs stand apart in the source and are kept apart here.",
  "data": [
    {"smiles": "Nc1nnc(-c2cccc(Cl)c2Cl)c(N)n1", "note": "[lamotrigine]", "values": [
      {"measurement": "reduction of CIPN", "setting": "CIPN [1]", "result": "failed to reduce CIPN"}
    ]},
    {"smiles": "NCC1(CC(=O)O)CCCCC1", "note": "[gabapentin]", "values": [
      {"measurement": "anti-hyperalgesic effect on mechanical hyperalgesia after repeated treatment", "setting": "[2]", "result": "no significant effects"},
      {"measurement": "reversal of vincristine mechanical hyper-sensitivity (paw pressure threshold)", "setting": "[2]", "result": "lacked of any significant effects"},
      {"measurement": "activity on vehicle treated animals (paw pressure)", "setting": "[2]", "result": "devoid of any significant activity"},
      {"measurement": "anti-hyperalgesic activity, i.v.", "setting": "[3]", "result": "lacked of any significant effect"},
      {"measurement": "anti-hyperalgesic activity, i.p.", "setting": "[3]", "result": "lacked of any significant effect"},
      {"measurement": "rat paw pressure threshold, anti-hyperalgesic effect", "setting": "[3]", "result": "not able to induce any anti-hyperalgesic effect"},
      {"measurement": "prevention of oxaliplatin-induced decrease of mechanical threshold", "setting": "[4]", "result": "only a moderated anti-hyperalgesic effect"},
      {"measurement": "anti-hyperalgesic activity, pharmacodynamic experiment, 30 min", "setting": "[4]; after 3 weeks of oxaliplatin, p.o., 30 min after treatment", "result": "only a moderate effect"},
      {"measurement": "effects on vehicle treated animals (paw pressure)", "setting": "[4]; p.o.", "result": "Neither NiK-13317 or gabapentin induced significant effects"},
      {"measurement": "adverse side effects such as nystagmus and dizziness", "setting": "CIPN [5]", "result": "significant more adverse side effects"},
      {"measurement": "reduction of pain intensity (NRS score), sensory neuropathy (ECOG rating), and other adverse events", "setting": "CIPN [5]", "result": "failed to reduce"}
    ]},
    {"smiles": "CC[C@]1(O)C[C@H]2CN(CCc3c([nH]c4ccccc34)[C@@](C(=O)OC)(c3cc4c(cc3OC)N(C=O)[C@H]3[C@@](O)(C(=O)OC)[C@H](OC(C)=O)[C@]5(CC)C=CCN6CC[C@]43[C@@H]65)C2)C1", "note": "[vincristine]", "values": [
      {"measurement": "mechanical hyperalgesia produced by vincristine treatment (reduction of paw pressure threshold)", "setting": "[2]; vincristine 150 μg/kg i.v. every two days, cumulative 750 μg/kg", "result": "marked and prolonged mechanical hyperalgesia"},
      {"measurement": "concentration of maximal cytotoxic effect", "setting": "[6]; HT29 cells, 72 hours, ATPlite", "result": 100, "unit": "nM"},
      {"measurement": "IC50", "setting": "[6]; Homo sapiens, HT-29, 72 h", "result": 7, "unit": "nM"}
    ]},
    {"smiles": "O=C1[O][Pt]2([NH][C@@H]3CCCC[C@H]3[NH]2)[O]C1=O", "note": "[oxaliplatin]", "values": [
      {"measurement": "paw pressure threshold change caused by repeated oxaliplatin", "setting": "[4]; oxaliplatin 2.4 mg/kg i.p., 5 consecutive days every week, evident from first week", "result": "decrease in paw pressure threshold"},
      {"measurement": "IC50", "setting": "[6]; HT29 cells, 72 hours, ATPlite", "result": 36000, "unit": "nM"}
    ]},
    {"smiles": "CC(=O)O[C@H]1C(=O)[C@@]2(C)[C@H]([C@H](OC(=O)c3ccccc3)[C@]3(O)C[C@H](OC(=O)[C@H](O)[C@@H](NC(=O)c4ccccc4)c4ccccc4)C(C)=C1C3(C)C)[C@]1(OC(C)=O)CO[C@@H]1C[C@@H]2O", "note": "[taxol]", "values": [
      {"measurement": "mechanical hyperalgesia produced by taxol treatment", "setting": "[3]; taxol 0.5 mg/kg i.p. on days 1, 3, 5, 8", "result": "significant mechanical hyperalgesia"},
      {"measurement": "concentration of maximal cytotoxic effect", "setting": "[6]; HT29 cells, 72 hours, ATPlite", "result": 100, "unit": "nM"},
      {"measurement": "IC50", "setting": "[6]; Homo sapiens, HT-29, 72 h", "result": 8, "unit": "nM"}
    ]},
    {"smiles": "Cc1ccc(N2C(=O)CN3C(=O)CCC32)cc1", "note": "(racemic) [NiK-13317, racemic 1-(4-Methylphenyl)dihydro-1H-pyrrolo[1,2-a]imidazole-2,5(3H,6H)-dione]", "values": [
      {"measurement": "anti-hyperalgesic effect on mechanical hyperalgesia after repeated treatment", "setting": "[2]", "result": "statistically significant (p<0.01) anti-hyperalgesic effect"},
      {"measurement": "development of tolerance after repeated treatment", "setting": "[2]; 30 mg/kg i.p. daily, 5 days", "result": "without development of tolerance"},
      {"measurement": "anti-hyperalgesic effect 23 hr after the 4th administration", "setting": "[2]; 30 mg/kg i.p. daily, 23 hr after 4th administration (1 hr before last injection)", "result": "statistically significant effect (p<0.05)"},
      {"measurement": "reversal of vincristine mechanical hyper-sensitivity (paw pressure threshold)", "setting": "[2]", "result": "pronounced significant reversal"},
      {"measurement": "activity on vehicle treated animals (paw pressure)", "setting": "[2]", "result": "devoid of any significant activity"},
      {"measurement": "anti-hyperalgesic activity, i.v.", "setting": "[3]", "result": "active"},
      {"measurement": "anti-hyperalgesic activity, i.p.", "setting": "[3]", "result": "active"},
      {"measurement": "rat paw pressure threshold, anti-hyperalgesic effect", "setting": "[3]", "result": "significantly increased"},
      {"measurement": "prevention of oxaliplatin-induced decrease of mechanical threshold", "setting": "[4]", "result": "completely prevented"},
      {"measurement": "anti-hyperalgesic activity, pharmacodynamic experiment, 8 hr", "setting": "[4]; after 3 weeks of oxaliplatin, 100 mg/kg p.o., 8 hr after treatment", "result": "still active"},
      {"measurement": "anti-hyperalgesic activity, pharmacodynamic experiment, 30 min and 4 hr", "setting": "[4]; after 3 weeks of oxaliplatin, given orally, 30 min and 4 hr after administration", "result": "active"},
      {"measurement": "effects on vehicle treated animals (paw pressure)", "setting": "[4]; p.o.", "result": "Neither NiK-13317 or gabapentin induced significant effects"}
    ]},
    {"smiles": "Cc1ccc(N2C(=O)CN3C(=O)CCC32)cc1", "note": "(single isomer, unassigned) [compound of formula (I), 1-(4-Methylphenyl)dihydro-1H-pyrrolo[1,2-a]imidazole-2,5(3H,6H)-dione]", "values": [
      {"measurement": "development of tolerance (general statement)", "setting": "[2]; rat, in vivo", "result": "not to develop tolerance"}
    ]},
    {"smiles": "CNCCC=C1c2ccccc2CCc2ccccc21", "note": "[nortriptyline]", "values": [
      {"measurement": "efficacy over placebo on cisplatin-induced pain syndrome", "setting": "[7]", "result": "lack of nortriptyline efficacy over placebo"}
    ]}
  ]
}
